Assay results published in patent US6358885B1, “Substituted phenylheterocyclic herbicides” (Mississippi State University, priority 1992, dated 2002).

Key:
[1] = system: sandbur; experiment: Test G preemergence/postemergence greenhouse plant response rating 0 to 100; type: in vivo, Cenchrus echinatus; details: 0 to 100 scale
Summary of the method: (§1)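 Greenhouse pots, one species each; non-phytotoxic solvent vehicle. Read-out: visual injury vs untreated, 13–21 DAT. Dash denotes no result.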

[2] = system: alfalfa; experiment: as above; type: in vivo, Medicago ativa; details: 0 to 100 scale
Summary of the method: as §1

[3] = system: broadleaf signalgrass; experiment: as above; type: in vivo, Brachiaria plantaginea; details: 0 to 100 scale
Summary of the method: as §1

[4] = system: purple nutsedge; experiment: as above; type: in vivo, Cyperus rotundus; details: Rate 125 g/ha, 0 to 100 scale
Summary of the method: as §1

[5] = system: smooth crabgrass; experiment: as above; type: in vivo, Digitaria ischaemum; details: 0 to 100 scale
Summary of the method: as §1

[6] = system: large crabgrass; experiment: as above; type: in vivo, Digitaria sanguinalis; details: 0 to 100 scale
Summary of the method: as §1

[7] = system: itchgrass; experiment: as above; type: in vivo, Rottboellia exaltata; details: 0 to 100 scale
Summary of the method: as §1

[8] = system: common ragweed; experiment: as above; type: in vivo, Ambrosia elatior; details: 0 to 100 scale
Summary of the method: as §1

[9] = system: guineagrass; experiment: as above; type: in vivo, Panicum maximum; details: 0 to 100 scale
Summary of the method: as §1

[10] = system: yellow nutsedge; experiment: as above; type: in vivo, Cyperus esculentus; details: Rate 125 g/ha, 0 to 100 scale
Summary of the method: as §1

[11] = system: peanut; experiment: as above; type: in vivo, Arachis hypoagaea; details: 0 to 100 scale
Summary of the method: as §1

[12] = system: common purslane; experiment: as above; type: in vivo, Portulaca oleracea; details: 0 to 100 scale
Summary of the method: as §1

[13] = system: johnsongrass; experiment: as above; type: in vivo, Sorghum halepense; details: 0 to 100 scale
Summary of the method: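 Scoring: visual injury at 13 to 21 days post-application, compared with untreated controls. Planting: one species per pot in greenhouse medium. Dosing: compound in non-phytotoxic solvent, within one day of sowing for preemergence or at 2–4 leaves for postemergence.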

[14] = system: pitted morningglory; experiment: as above; type: in vivo, Ipomoea lacunosa; details: 0 to 100 scale
Summary of the method: as §1

[15] = system: dallisgrass; experiment: as above; type: in vivo, Paspalum dilatatum; details: 0 to 100 scale
Summary of the method: as §1

[16] = system: bermudagrass; experiment: as above; type: in vivo, Cynodon dactylon; details: 0 to 100 scale
Summary of the method: as §1

[17] = system: arrowhead; experiment: Test D paddy water application plant response rating 0 to 100; type: in vivo, Sagittaria spp.; details: 0 to 100 scale, approx. 21 days
Source text: Plastic pots were partially filled with silt loam soil. The soil was then saturated with water. […] After planting, water levels were raised to 3 cm above the soil surface and maintained at this level throughout the test. Chemical treatments were formulated in a non-phytotoxic solvent and applied directly to the paddy water. Treated plants and controls were maintained in a greenhouse for approximately 21 days, after which all species were compared to controls and visually evaluated. […] A dash (-) response means no test result.

[18] = system: goosegrass; experiment: Test G preemergence/postemergence greenhouse plant response rating 0 to 100; type: in vivo, Eleusine indica; details: 0 to 100 scale
Summary of the method: as §1

[19] = system: annual bluegrass; experiment: as above; type: in vivo, Poa annua; details: 0 to 100 scale
Summary of the method: as §1

## CC(C)N1C(=O)COc2cc(F)c(-c3nn4c(c3Cl)CCCC4)cc21 [Compound 31]
[1]; POSTEMERGENCE, Rate 125 g/ha
  Plant response rating, S. Sandbur: 0
[1]; POSTEMERGENCE, Rate 250 g/ha
  Plant response rating, S. Sandbur: 0
[1]; PREEMERGENCE, Rate 125 g/ha
  Plant response rating, S. Sandbur: 0
[1]; PREEMERGENCE, Rate 250 g/ha
  Plant response rating, S. Sandbur: 0
[2]; POSTEMERGENCE, Rate 125 g/ha
  Plant response rating, Alfalfa Var.: 0
[2]; POSTEMERGENCE, Rate 250 g/ha
  Plant response rating, Alfalfa Var.: 10
[2]; PREEMERGENCE, Rate 125 g/ha
  Plant response rating, Alfalfa Var.: 0
[2]; PREEMERGENCE, Rate 250 g/ha
  Plant response rating, Alfalfa Var.: 30
[3]; POSTEMERGENCE, Rate 125 g/ha
  Plant response rating, Brdlf Sgnlgrass: 0
[3]; POSTEMERGENCE, Rate 250 g/ha
  Plant response rating, Brdlf Sgnlgrass: 0
[3]; PREEMERGENCE, Rate 125 g/ha
  Plant response rating, Brdlf Sgnlgrass: 0
[3]; PREEMERGENCE, Rate 250 g/ha
  Plant response rating, Brdlf Sgnlgrass: 0
[4]; POSTEMERGENCE
  Plant response rating, Purple Nutsedge: 10
[4]; PREEMERGENCE
  Plant response rating, Purple Nutsedge: 0
[5]; POSTEMERGENCE, Rate 125 g/ha
  Plant response rating, Smooth Crabgras: 0
[5]; POSTEMERGENCE, Rate 250 g/ha
  Plant response rating, Smooth Crabgras: 0
[5]; PREEMERGENCE, Rate 125 g/ha
  Plant response rating, Smooth Crabgras: 0
[5]; PREEMERGENCE, Rate 250 g/ha
  Plant response rating, Smooth Crabgras: 0
[6]; POSTEMERGENCE, Rate 125 g/ha
  Plant response rating, Large Crabgrass: 0
[6]; POSTEMERGENCE, Rate 250 g/ha
  Plant response rating, Large Crabgrass: 0
[6]; PREEMERGENCE, Rate 125 g/ha
  Plant response rating, Large Crabgrass: 0
[6]; PREEMERGENCE, Rate 250 g/ha
  Plant response rating, Large Crabgrass: 0
[7]; POSTEMERGENCE, Rate 125 g/ha
  Plant response rating, Itchgrass: 0
[7]; POSTEMERGENCE, Rate 250 g/ha
  Plant response rating, Itchgrass: 20
[7]; PREEMERGENCE, Rate 125 g/ha
  Plant response rating, Itchgrass: 0
[7]; PREEMERGENCE, Rate 250 g/ha
  Plant response rating, Itchgrass: 70
[8]; POSTEMERGENCE, Rate 125 g/ha
  Plant response rating, Cmn Ragweed: 100
[8]; POSTEMERGENCE, Rate 250 g/ha
  Plant response rating, Cmn Ragweed: 100
[8]; PREEMERGENCE, Rate 125 g/ha
  Plant response rating, Cmn Ragweed: 0
[8]; PREEMERGENCE, Rate 250 g/ha
  Plant response rating, Cmn Ragweed: 70
[9]; POSTEMERGENCE, Rate 125 g/ha
  Plant response rating, Guineagrass: 0
[9]; POSTEMERGENCE, Rate 250 g/ha
  Plant response rating, Guineagrass: 0
[9]; PREEMERGENCE, Rate 125 g/ha
  Plant response rating, Guineagrass: 0
[9]; PREEMERGENCE, Rate 250 g/ha
  Plant response rating, Guineagrass: 100
[10]; POSTEMERGENCE
  Plant response rating, Yellow Nutsedge: 0
[10]; PREEMERGENCE
  Plant response rating, Yellow Nutsedge: 0
[11]; POSTEMERGENCE, Rate 125 g/ha
  Plant response rating, Peanuts: 0
[11]; POSTEMERGENCE, Rate 250 g/ha
  Plant response rating, Peanuts: 0
[11]; PREEMERGENCE, Rate 125 g/ha
  Plant response rating, Peanuts: 0
[11]; PREEMERGENCE, Rate 250 g/ha
  Plant response rating, Peanuts: 0
[12]; POSTEMERGENCE, Rate 125 g/ha
  Plant response rating, Cmn Purslane: 100
[12]; POSTEMERGENCE, Rate 250 g/ha
  Plant response rating, Cmn Purslane: 80
[12]; PREEMERGENCE, Rate 125 g/ha
  Plant response rating, Cmn Purslane: 0
[12]; PREEMERGENCE, Rate 250 g/ha
  Plant response rating, Cmn Purslane: 100
[13]; POSTEMERGENCE, Rate 125 g/ha
  Plant response rating, Johnsongrass: 0
[13]; POSTEMERGENCE, Rate 250 g/ha
  Plant response rating, Johnsongrass: 0
[13]; PREEMERGENCE, Rate 125 g/ha
  Plant response rating, Johnsongrass: 0
[13]; PREEMERGENCE, Rate 250 g/ha
  Plant response rating, Johnsongrass: 0
[14]; POSTEMERGENCE, Rate 125 g/ha
  Plant response rating, Pit Morninglory: 50
[14]; POSTEMERGENCE, Rate 250 g/ha
  Plant response rating, Pit Morninglory: 50
[14]; PREEMERGENCE, Rate 125 g/ha
  Plant response rating, Pit Morninglory: 0
[14]; PREEMERGENCE, Rate 250 g/ha
  Plant response rating, Pit Morninglory: 0
[15]; POSTEMERGENCE, Rate 125 g/ha
  Plant response rating, Dallisgrass: 0
[15]; POSTEMERGENCE, Rate 250 g/ha
  Plant response rating, Dallisgrass: 0
[15]; PREEMERGENCE, Rate 125 g/ha
  Plant response rating, Dallisgrass: 0
[15]; PREEMERGENCE, Rate 250 g/ha
  Plant response rating, Dallisgrass: 0
[16]; POSTEMERGENCE, Rate 125 g/ha
  Plant response rating, Bermudagrass: 0
[16]; POSTEMERGENCE, Rate 250 g/ha
  Plant response rating, Bermudagrass: 0
[16]; PREEMERGENCE, Rate 125 g/ha
  Plant response rating, Bermudagrass: 0
[16]; PREEMERGENCE, Rate 250 g/ha
  Plant response rating, Bermudagrass: 0
[17]; Rate 4 g/ha
  Arrowhead plant response rating: 50
[17]; Rate 8 g/ha
  Arrowhead plant response rating: 60
[17]; Rate 16 g/ha
  Arrowhead plant response rating: 85
[17]; Rate 32 g/ha
  Arrowhead plant response rating: 100
[17]; Rate 64 g/ha
  Arrowhead plant response rating: 100
[18]; POSTEMERGENCE, Rate 125 g/ha
  Plant response rating, Goosegrass: 0
[18]; POSTEMERGENCE, Rate 250 g/ha
  Plant response rating, Goosegrass: 0
[18]; PREEMERGENCE, Rate 125 g/ha
  Plant response rating, Goosegrass: 0
[18]; PREEMERGENCE, Rate 250 g/ha
  Plant response rating, Goosegrass: 0
[19]; POSTEMERGENCE, Rate 125 g/ha
  Plant response rating, Ann Bluegrass: 0
[19]; POSTEMERGENCE, Rate 250 g/ha
  Plant response rating, Ann Bluegrass: 0
[19]; PREEMERGENCE, Rate 125 g/ha
  Plant response rating, Ann Bluegrass: 0
[19]; PREEMERGENCE, Rate 250 g/ha
  Plant response rating, Ann Bluegrass: 0
